Assay results taken from patent publication US20230295109A1, “PYRIDINONE COMPOUNDS FOR THE TREATMENT OF AUTOIMMUNE DISEASE” (F. Hoffmann-La Roche AG, priority 2020, published 2023).
Where two headings read alike, the source gives them in different places.

How the values were obtained:
[1] = Single dose pharmacokinetics (PK) study in male Wister-Han rats; assay type: in vivo
Procedure: Pharmacokinetic properties of selected compounds were assessed by single dose PK studies in Male Wister-Han Rats (vendor: Beijing Vital River Laboratory Animal Technology Co., Ltd). Briefly, two groups of animals were administered a single dose of respective compound intravenously (IV, bolus) at 2 mg/kg or orally (PO, by gavage) at 10 mg/kg. Blood samples (approximately 150 µL) were collected via Jugular vein at 5 min (only for IV), 15 min, 30 min, 1 h, 2 h, 4 h, 7 h and 24 h post-dose. Blood samples were placed into tubes containing EDTA-K2 anticoagulant and centrifuged at 3000 rpm for 15 min at 4° C. to separate plasma from the samples. After centrifugation, the resulting plasma was transferred to clean tubes for bioanalysis with LC/MS/MS. The pharmacokinetic parameters were calculated using non-compartmental analysis. The volume of distribution (Vss), half-life (T½) and clearance (CL) were obtained based on the plasma concentration-time curve after IV dose. The peak concentration (Cmax) was recorded directly from experimental observations after PO dose. The area under the plasma concentration-time curve (AUC0-last) was calculated using the linear trapezoidal rule up to the last detectable concentration. The bioavailability (F) was calculated based on the dose normalized AUC0-last after IV and PO dose.
The Vss of a drug represents the degree to which a drug is distributed in body tissue rather than the plasma. Vss is directly proportional with the amount of drug distributed into tissue. A higher Vss indicates a greater amount of tissue distribution.

hERG channel = molecular target: T1, hERG channel (Homo sapiens, UniProt Q12809); assay: hERG channel inhibition assay (patch-clamp, CHOhERG cells); assay type: cell-based; details: for IC50 / IC20: CHOhERG cells, whole-cell patch-clamp; for IC20: human, CHO cells stably expressing hERG (CHOhERG); for hERG IC20 / TLR8 IC50 / hERG IC20 / TLR9 IC50 / hERG IC20 /TLR7 IC50: safety ratio
T1 construct: expressed in transfected cells; host or cells: CHO (Chinese hamster ovary), CHOhERG
T1 sequence (Q12809 whole entry): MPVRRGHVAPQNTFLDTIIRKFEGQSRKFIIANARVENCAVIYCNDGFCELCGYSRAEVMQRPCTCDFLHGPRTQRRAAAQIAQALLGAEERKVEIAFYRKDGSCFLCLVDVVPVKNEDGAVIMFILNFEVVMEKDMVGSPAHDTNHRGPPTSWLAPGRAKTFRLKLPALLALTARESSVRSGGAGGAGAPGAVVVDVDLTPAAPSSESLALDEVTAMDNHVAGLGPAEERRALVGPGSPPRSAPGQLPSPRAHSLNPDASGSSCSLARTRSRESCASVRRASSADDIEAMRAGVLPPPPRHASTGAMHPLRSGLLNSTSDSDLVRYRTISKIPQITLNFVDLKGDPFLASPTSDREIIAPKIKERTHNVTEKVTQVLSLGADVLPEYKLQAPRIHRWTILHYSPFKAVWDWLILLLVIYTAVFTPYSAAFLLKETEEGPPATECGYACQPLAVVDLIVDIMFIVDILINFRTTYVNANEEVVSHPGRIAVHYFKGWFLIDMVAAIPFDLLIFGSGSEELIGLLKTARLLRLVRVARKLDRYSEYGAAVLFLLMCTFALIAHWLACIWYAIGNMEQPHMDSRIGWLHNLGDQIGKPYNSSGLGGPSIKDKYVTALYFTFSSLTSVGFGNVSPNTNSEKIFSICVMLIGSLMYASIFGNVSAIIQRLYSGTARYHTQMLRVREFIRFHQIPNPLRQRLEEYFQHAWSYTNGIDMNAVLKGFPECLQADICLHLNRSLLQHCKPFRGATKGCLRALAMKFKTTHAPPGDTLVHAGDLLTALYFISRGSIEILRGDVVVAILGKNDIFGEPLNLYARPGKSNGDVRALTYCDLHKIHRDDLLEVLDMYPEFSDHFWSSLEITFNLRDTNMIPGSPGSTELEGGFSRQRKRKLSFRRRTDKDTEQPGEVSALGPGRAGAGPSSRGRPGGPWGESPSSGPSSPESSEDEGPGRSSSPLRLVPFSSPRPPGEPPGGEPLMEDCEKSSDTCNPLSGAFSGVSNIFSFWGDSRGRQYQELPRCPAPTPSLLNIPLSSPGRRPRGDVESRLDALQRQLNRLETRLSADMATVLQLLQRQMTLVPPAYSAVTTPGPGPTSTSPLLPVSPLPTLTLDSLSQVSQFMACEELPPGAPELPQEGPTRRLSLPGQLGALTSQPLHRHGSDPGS
Procedure: The hERG K^+ channels were cloned in humans and stably expressed in a CHO (Chinese hamster ovary) cell line. CHOhERG cells were used for patch-clamp (voltage-clamp, whole-cell) experiments. Cells were stimulated by a voltage pattern to activate hERG channels and conduct IKhERG currents (rapid delayed outward rectifier potassium current of the hERG channel). After the cells were stabilized for a few minutes, the amplitude and kinetics of IKhERG were recorded at a stimulation frequency of 0.1 Hz (6 bpm). Thereafter, the test compound was added to the preparation at increasing concentrations. For each concentration, an attempt was made to reach a steady-state effect, usually, this was achieved within 3-10 min at which time the next highest concentration was applied. The amplitude and kinetics of IKhERG are recorded in each concentration of the drug which were compared to the control values (taken as 100%). (references: Redfern WS, Carlsson L, Davis AS, Lynch WG, MacKenzie I, Palethorpe S, Siegl PK, Strang I, Sullivan AT, Wallis R, Camm AJ, Hammond TG. 2003; Relationships between preclinical cardiac electrophysiology, clinical QT interval prolongation and torsade de pointes for a broad range of drugs: evidence for a provisional safety margin in drug development. Cardiovasc. Res. 58:32-45, Sanguinetti MC, Tristani-Firouzi M. 2006; hERG potassium channels and cardiac arrhythmia. Nature 440:463-469, Webster R, Leishman D, Walker D. 2002; Towards a drug concentration effect relationship for QT prolongation and torsades de pointes. Curr. Opin. Drug Discov. Devel. 5:116-26).

| F ([1]; dose normalized AUC0-last after IV 2 mg/kg and PO 10 mg/kg) [%] | AUC(0-t) ([1]; rat, IV 2 mg/kg, plasma, read-out: IV AUC0-last) [µg·h/mL] | Cmax ([1]; rat, PO 10 mg/kg, plasma) [µg/mL] | AUC(0-t) ([1]; rat, PO 10 mg/kg, plasma, read-out: PO AUC0-last) [µg·h/mL] | clearance ([1]; rat, plasma, IV 2 mg/kg) [L/h/kg] | half-life ([1]; rat, plasma, IV 2 mg/kg, read-out: T½ (converted)) [h] | Vd ([1]; rat, plasma, IV 2 mg/kg, read-out: Vss) [L/kg] | Structure (SMILES) | IC50 (hERG channel) [µM] | IC20 (hERG channel) [µM] | hERG IC20 / TLR8 IC50 (hERG channel) | hERG IC20 / TLR9 IC50 (hERG channel) | hERG IC20 /TLR7 IC50 (hERG channel) |
| --- | --- | --- | --- | --- | --- | --- | --- | --- | --- | --- | --- | --- |
| 40 | 0.873 | 0.151 | 1.75 | 2.22 | 3.78 | 7.4 | CCc1nc(N2CCN(Cc3cnc(N4CC5(CNCCO5)C4)nc3)CC2)ccc1-c1cc(C)c(=O)n(C)c1 [Example 1, 5-[2-ethyl-6-[4-[[2-(5-oxa-2,8-diazaspiro[3.5]nonan-2-yl)pyrimidin-5-yl]methyl]piperazin-1-yl]-3-pyridyl]-1,3-dimethyl-pyridin-2-one] | > 20 | > 10 | >14285.2 | >14.2 | >1052.6 |
|  |  |  |  |  |  |  | CCc1nc(N2CCN(Cc3ccc(N4CC5(CNCCO5)C4)nc3)CC2)ccc1-c1cc(C)c(=O)n(C)c1 [Example 2, 5-[2-ethyl-6-[4-[[6-(5-oxa-2,8-diazaspiro[3.5]nonan-2-yl)-3 pyridyl]methyl]piperazin-1-yl]-3-pyridyl]-1,3-dimethyl-pyridin-2-one] | > 20 | > 10 | >33000 | >47.1 | >961.8 |
|  |  |  |  |  |  |  | CCc1nc(N2CCN(Cc3cnc(N4CC(C)(N)C4)nc3)CC2)ccc1-c1cc(C)c(=O)n(C)c1 [Example 3, 5-[6-[4-[[2-(3-amino-3-methyl-azetidin-1-yl)pyrimidin-5-yl]methyl]piperazin-1-yl]-2-ethyl-3-pyridyl]-1,3-dimethyl-pyridin-2-one] | > 20 | > 10 | >33000 | >31.4 | >724.6 |
|  |  |  |  |  |  |  | Cc1cc(-c2ccc(N3CCN(Cc4ccc(N5CCNCC5)cn4)CC3)nc2C(C)C)cn(C)c1=O [Example 7, 5-[2-isopropyl-6-[4-[(5-piperazin-1-yl-2-pyridyl)methyl]piperazin-1-yl]-3-pyridyl]-1,3-dimethyl-pyridin-2-one] | > 20 | 4.7 | 16000 | 24.4 | 940 |
